One series deals with catalepsy. The series can be described thus: Induction of catalepsy in rats. It is filed as in vivo. To be noted: s.c. An excerpt: The induction of catalepsy in rats [J. Robert et al., J. Pharmacol. Exp. Ther., 1986, 239, 124] is a parameter that is commonly employed for determining the ability of antipsychotics to induce extrapyramidal effects. The typical antipsychotics are those which, in spite of being very powerful in specific tests of antipsychotic activity, induce extrapyramidal effects, and this is detected in the catalepsy test. The best known of the typical antipsychotics is haloperidol, whereas the best known of the atypical antipsychotics is clozapine.

A further series has as its system protein c-fos. The series can be described thus: Induction of the protein c-fos in various brain areas in the rat (Western blot). To be noted: sc; for activity at 30 mg/kg: rat, acute treatment, 30 mg/kg s.c. It counts as in vivo. An excerpt: Induction of the Protein c-fos in Various Brain Areas in the Rat
Acute treatment with various antipsychotics is characterized by the induction of the protein c-fos, owing to the rapid induction off the c-fos gene in various areas of the limbic and extrapyramidal systems [M. Dragunow et al., Neuroscience, 1990, 37, 287-294; J. C. Miller, J. Neurochem., 1990, 54, 1453-1455; A. Y. Deutch et al., Mol. Cell. Neurosci., 1992, 3, 332-341; T. V. Nguyen et al., Proc. Natl. Acad. Sci. USA, 1992, 89, 4270-4274; G. S. Robertson and H. C. Fibinger, Neuroscience, 1992, 46, 315-328]. The patterns of induction of the protein depend on whether the antipsychotic is typical or atypical [G. S. Robertson et al., J. Pharmacol. Exp. Ther., 1994, 271, 1058-1066; G. S. Robertson and H. C. Fibinger, Neuroscience, 1992, 46, 315-328]. These changes in expression of c-fos can be investigated by extraction of the proteins from the brain areas of interest, and analysis of the levels by electrophoresis (Western blot).
On the technique in general: A western blot detects proteins with antibodies after separation by electrophoresis.

Another series has as its target SIGMA-2 (σ2) (Homo sapiens, UniProt Q5BJF2). Put plainly: Sigma-2 receptor affinity. It counts as binding. As to conditions: SIGMA-2 (σ2) receptor.
A further series has as its target SIGMA-1 (σ1) (Homo sapiens, UniProt Q99720). The series can be described thus: Sigma-1 receptor affinity. It is filed as binding. To be noted: SIGMA-1 (σ1) receptor.
The target in a further series is T1, 5-HT1A (Homo sapiens, UniProt P08908).
T1 sequence (P08908 1-422): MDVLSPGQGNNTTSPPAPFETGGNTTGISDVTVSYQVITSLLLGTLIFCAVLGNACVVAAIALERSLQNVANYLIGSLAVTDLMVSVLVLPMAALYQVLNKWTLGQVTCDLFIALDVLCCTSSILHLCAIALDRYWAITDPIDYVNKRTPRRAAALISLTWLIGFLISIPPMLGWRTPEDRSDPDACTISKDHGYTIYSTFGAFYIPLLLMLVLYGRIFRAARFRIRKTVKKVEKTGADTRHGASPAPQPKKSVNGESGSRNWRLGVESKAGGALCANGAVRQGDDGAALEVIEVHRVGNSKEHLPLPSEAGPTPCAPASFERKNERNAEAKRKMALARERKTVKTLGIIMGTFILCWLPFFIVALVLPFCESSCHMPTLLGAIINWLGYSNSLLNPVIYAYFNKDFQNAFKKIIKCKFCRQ
Put plainly: 5-HT1A receptor affinity. It is filed as binding.

These results are taken from US6355659B1, “4-(4-Chlorophenyl)-1236-tetrahydro-1(1H-124-triazol-1-yl)butty)pyrideine and salts thereof; pharmaceutical compositions and method of treating psychoses utilizing same” (Laboratorios Del Dr. Esteve, S.A., priority 1994, dated 2002).

Structures can show the parent of a compound that is named as a salt. Where two headings read alike, the source gives them in different places.

Sequence of SIGMA-1 (σ1) (Q99720 whole entry): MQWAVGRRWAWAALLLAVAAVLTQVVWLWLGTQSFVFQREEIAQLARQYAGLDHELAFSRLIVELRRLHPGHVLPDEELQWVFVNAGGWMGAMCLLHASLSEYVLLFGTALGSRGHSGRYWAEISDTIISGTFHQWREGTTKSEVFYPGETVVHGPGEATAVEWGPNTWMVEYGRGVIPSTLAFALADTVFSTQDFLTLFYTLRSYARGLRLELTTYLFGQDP
Sequence of SIGMA-2 (σ2) (Q5BJF2 whole entry): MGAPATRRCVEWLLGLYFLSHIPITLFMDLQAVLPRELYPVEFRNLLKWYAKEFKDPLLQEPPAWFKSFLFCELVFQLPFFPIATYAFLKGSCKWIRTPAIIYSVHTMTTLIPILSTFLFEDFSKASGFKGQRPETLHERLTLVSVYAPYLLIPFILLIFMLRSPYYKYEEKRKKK

In the case of `CN1CCN(C2=Nc3cc(Cl)ccc3Nc3ccccc32)CC1` [Clozapine, clozapine], in the series with catalepsy, the “Induction of catalepsy, DE-50” value is reported as “Inactive up to 80 mg/kg”. Also, the activity at 30 mg/kg was 110% in the series on protein c-fos (read-out: Fos immunoreactivity % change relative to control, Dorsolateral groove); 134% with protein c-fos (read-out: Fos immunoreactivity % change relative to control, Medial area of prefrontal cortex); 118% in the series with protein c-fos (read-out: Fos immunoreactivity % change relative to control, Nucleus accumbens).
By Ki is commonly meant the dissociation constant of the complex between target and ligand, obtained from inhibition or displacement. As for `Clc1ccc(C2=CCN(CCCCn3cncn3)CC2)cc1` [Example 2, 4-(4-chlorophenyl)-1,2,3,6-tetrahydro-1-[4-(1H-1,2,4-triazol-1-yl)butyl]pyridine hydrochloride], the inhibition constant Ki on SIGMA-2 (σ2) is 0.465 µM; at SIGMA-1 (σ1), 0.0037 µM; at 5-HT1A, 0.6 µM. The activity at 20 mg/kg in the series on protein c-fos (read-out: Fos immunoreactivity % change relative to control, Dorsolateral groove, rat, acute treatment, 20 mg/kg s.c., % of saline group) worked out at 104%; in the series with protein c-fos (read-out: Fos immunoreactivity % change relative to control, Medial area of prefrontal cortex, rat, acute treatment, 20 mg/kg s.c., % of saline group), 134%; in the series with protein c-fos (read-out: Fos immunoreactivity % change relative to control, Nucleus accumbens, rat, acute treatment, 20 mg/kg s.c., % of saline group) it was 118%.
`O=C(CCCN1CCC(O)(c2ccc(Cl)cc2)CC1)c1ccc(F)cc1` [Haloperidol, haloperidol]: the “Induction of catalepsy, DE-50” value is given as “DE-50 = 0.14 mg/kg,” in the series on catalepsy and 0.14 mg/kg with catalepsy (listed as haloperidol).
